# Experimental data taken from ChEMBL document CHEMBL1201862, “PubChem BioAssay data set” (2004).
# Activity calls are given as the source filed them.
# What was measured:
# [1] = molecular target: Peroxisome proliferator-activated receptor gamma/Nuclear receptor coactivator 2 (Homo sapiens, UniProt P37231); format: functional;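 further: agonist potency for raising coactivator recruitment to the receptor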
# [2] = molecular target: Peroxisome proliferator-activated receptor gamma/Nuclear receptor coactivator 1 (Homo sapiens, UniProt P37231); format: functional;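 further: agonist potency as compounds enhance coactivator SRC-1 recruitment to PPARgamma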
# Chain of Peroxisome proliferator-activated receptor gamma/Nuclear receptor coactivator 1 (P37231 whole entry): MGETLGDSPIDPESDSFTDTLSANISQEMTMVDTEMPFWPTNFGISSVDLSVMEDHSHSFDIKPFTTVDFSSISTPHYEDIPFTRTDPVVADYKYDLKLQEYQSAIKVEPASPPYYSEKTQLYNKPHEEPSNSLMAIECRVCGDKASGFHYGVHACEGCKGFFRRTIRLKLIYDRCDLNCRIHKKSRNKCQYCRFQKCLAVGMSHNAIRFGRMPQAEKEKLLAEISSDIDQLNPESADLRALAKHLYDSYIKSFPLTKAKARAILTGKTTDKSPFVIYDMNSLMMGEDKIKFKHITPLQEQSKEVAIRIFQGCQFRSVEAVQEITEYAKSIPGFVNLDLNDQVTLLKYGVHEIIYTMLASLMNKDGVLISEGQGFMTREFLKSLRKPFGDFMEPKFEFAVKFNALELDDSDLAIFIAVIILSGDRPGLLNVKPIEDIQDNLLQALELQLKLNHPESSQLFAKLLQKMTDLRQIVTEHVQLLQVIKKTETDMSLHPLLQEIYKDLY
# Chain of Peroxisome proliferator-activated receptor gamma/Nuclear receptor coactivator 1 (Q15788 whole entry, further chain): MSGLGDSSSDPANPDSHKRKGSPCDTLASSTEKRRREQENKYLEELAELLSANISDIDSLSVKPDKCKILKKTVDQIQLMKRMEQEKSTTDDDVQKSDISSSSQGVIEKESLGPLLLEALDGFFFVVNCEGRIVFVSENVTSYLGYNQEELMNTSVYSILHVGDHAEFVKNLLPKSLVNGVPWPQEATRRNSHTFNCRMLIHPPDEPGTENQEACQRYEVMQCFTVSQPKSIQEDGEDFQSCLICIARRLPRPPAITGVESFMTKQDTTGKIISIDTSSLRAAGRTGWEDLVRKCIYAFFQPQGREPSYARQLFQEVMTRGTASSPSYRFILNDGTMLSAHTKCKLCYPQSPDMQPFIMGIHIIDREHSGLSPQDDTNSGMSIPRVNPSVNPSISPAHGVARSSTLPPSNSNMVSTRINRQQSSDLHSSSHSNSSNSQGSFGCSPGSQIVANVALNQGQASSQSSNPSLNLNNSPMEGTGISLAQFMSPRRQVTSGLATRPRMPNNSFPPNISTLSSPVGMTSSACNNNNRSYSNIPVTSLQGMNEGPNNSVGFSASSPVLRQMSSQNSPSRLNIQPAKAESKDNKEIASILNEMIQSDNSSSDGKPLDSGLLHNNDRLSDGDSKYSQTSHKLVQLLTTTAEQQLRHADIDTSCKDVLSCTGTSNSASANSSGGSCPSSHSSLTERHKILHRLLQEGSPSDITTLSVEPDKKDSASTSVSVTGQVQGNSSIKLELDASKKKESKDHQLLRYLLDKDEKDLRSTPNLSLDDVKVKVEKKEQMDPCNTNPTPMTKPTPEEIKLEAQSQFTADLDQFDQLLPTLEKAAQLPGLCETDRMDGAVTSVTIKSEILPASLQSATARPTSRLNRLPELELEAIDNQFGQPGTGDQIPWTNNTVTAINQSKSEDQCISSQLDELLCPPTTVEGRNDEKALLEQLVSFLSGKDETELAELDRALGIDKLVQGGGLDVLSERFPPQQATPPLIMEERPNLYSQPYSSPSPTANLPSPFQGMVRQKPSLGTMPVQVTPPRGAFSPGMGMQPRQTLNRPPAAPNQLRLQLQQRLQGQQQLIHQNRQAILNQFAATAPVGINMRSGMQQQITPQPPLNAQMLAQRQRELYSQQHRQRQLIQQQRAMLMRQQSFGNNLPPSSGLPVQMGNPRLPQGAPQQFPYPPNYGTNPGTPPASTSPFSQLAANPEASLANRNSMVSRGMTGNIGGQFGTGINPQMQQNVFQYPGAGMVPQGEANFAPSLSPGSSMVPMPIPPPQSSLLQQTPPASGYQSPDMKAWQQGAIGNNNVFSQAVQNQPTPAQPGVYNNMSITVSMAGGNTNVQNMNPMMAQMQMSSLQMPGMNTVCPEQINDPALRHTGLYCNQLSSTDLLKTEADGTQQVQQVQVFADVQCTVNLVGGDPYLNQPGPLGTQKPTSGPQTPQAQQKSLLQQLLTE
# [3] = molecular target: Peroxisome proliferator-activated receptor gamma/Nuclear receptor coactivator 3 (Homo sapiens, UniProt P37231); format: functional;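 further: agonist potency for raising coactivator recruitment to the receptor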
# Chain of Peroxisome proliferator-activated receptor gamma/Nuclear receptor coactivator 3 (P37231 whole entry): as the sequence (P37231 whole entry) above
# Chain of Peroxisome proliferator-activated receptor gamma/Nuclear receptor coactivator 3 (Q9Y6Q9 whole entry, further chain): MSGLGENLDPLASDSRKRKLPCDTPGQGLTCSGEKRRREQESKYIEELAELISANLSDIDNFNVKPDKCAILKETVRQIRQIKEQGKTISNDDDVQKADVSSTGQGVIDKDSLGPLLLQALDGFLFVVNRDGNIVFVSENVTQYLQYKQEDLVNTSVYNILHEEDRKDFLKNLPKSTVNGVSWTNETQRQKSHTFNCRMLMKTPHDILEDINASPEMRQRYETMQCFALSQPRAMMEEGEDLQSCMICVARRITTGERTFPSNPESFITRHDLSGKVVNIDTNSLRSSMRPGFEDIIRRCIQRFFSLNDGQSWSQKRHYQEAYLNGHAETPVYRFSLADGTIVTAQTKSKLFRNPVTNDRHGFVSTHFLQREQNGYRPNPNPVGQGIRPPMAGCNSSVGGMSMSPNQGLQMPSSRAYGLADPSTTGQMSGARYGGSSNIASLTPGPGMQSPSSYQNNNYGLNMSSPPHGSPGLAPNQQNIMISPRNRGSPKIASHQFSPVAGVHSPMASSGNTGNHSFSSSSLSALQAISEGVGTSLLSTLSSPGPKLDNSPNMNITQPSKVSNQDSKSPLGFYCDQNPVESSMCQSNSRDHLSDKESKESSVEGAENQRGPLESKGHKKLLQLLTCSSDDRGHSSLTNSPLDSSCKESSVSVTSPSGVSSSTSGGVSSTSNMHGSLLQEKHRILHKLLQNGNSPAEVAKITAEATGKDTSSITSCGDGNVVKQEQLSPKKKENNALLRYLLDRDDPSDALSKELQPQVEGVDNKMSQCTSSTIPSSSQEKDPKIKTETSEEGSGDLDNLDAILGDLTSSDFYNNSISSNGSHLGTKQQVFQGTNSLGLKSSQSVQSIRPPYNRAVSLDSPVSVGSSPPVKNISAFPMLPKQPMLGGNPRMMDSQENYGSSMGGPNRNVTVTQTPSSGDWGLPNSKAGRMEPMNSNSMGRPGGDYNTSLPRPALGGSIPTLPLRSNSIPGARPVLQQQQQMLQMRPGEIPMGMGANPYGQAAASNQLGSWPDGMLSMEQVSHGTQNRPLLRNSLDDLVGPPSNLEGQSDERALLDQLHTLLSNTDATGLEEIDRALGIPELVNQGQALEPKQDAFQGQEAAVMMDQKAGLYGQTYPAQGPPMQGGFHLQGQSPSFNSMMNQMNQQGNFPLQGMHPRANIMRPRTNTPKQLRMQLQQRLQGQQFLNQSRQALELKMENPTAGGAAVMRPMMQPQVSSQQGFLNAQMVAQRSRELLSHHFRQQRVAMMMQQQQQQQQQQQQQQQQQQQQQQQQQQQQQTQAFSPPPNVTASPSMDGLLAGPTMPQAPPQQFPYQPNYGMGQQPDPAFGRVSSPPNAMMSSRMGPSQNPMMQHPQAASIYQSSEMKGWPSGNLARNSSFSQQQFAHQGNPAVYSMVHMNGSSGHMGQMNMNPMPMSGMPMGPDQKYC
# [4] = molecular target: T1, Estrogen receptor (Homo sapiens, UniProt P03372); assay: blockers of SRC-3 recruitment to ERα – biochemical, ELISA, streptavidin-HRP readout, orthogonal assay, confirmation (AID 1079)
# T1 sequence (P03372 whole entry): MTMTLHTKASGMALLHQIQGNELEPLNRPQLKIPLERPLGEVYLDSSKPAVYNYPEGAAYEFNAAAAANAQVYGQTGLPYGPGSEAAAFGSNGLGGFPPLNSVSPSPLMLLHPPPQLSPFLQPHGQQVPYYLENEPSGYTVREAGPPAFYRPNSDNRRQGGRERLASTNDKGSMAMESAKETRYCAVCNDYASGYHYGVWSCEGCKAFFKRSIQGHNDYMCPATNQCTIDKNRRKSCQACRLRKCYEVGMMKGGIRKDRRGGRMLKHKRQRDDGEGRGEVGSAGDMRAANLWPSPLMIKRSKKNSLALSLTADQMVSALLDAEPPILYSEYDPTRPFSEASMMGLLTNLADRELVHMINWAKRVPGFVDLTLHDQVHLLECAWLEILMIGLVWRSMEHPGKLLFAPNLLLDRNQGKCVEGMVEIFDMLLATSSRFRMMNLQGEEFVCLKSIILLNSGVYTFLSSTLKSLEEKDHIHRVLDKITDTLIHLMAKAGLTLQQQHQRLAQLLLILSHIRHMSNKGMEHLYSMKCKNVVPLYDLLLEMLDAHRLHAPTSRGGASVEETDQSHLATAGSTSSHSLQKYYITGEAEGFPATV
# [5] = antiviral protection against BTV-induced cell death – arbovirus, BSR cells, confirmation (AID 1250); format: functional;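 further: protection from viral cytopathic effect measured as cell viability by ATP luminescence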
# [6] = molecular target: T2, RNA-binding protein pos-1 (Caenorhabditis elegans, UniProt G5EF15); assay: disruptors of C. elegans POS-1 RNA interaction – biochemical, fluorescence polarization, dose response (AID 1964);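 further: purified POS-1 fused to maltose binding protein made in E. coli; potency of compounds blocking POS-1 binding to fluorescent RNA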
# T2 sequence (G5EF15 whole entry): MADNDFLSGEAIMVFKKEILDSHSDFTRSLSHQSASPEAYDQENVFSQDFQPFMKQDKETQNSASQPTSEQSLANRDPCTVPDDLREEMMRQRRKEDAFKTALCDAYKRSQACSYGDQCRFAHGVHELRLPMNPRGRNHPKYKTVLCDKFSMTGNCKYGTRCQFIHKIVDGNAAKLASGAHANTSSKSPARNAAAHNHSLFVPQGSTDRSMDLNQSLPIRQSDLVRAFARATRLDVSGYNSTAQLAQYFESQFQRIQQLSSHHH
# [7] = molecular target: T3, Zinc finger protein mex-5 (Caenorhabditis elegans, UniProt Q9XUB2); assay: potency of MEX-5 RNA-binding blockers – biochemical, C. elegans, fluorescence polarization, dose response (AID 1960)
# T3 sequence (Q9XUB2 whole entry): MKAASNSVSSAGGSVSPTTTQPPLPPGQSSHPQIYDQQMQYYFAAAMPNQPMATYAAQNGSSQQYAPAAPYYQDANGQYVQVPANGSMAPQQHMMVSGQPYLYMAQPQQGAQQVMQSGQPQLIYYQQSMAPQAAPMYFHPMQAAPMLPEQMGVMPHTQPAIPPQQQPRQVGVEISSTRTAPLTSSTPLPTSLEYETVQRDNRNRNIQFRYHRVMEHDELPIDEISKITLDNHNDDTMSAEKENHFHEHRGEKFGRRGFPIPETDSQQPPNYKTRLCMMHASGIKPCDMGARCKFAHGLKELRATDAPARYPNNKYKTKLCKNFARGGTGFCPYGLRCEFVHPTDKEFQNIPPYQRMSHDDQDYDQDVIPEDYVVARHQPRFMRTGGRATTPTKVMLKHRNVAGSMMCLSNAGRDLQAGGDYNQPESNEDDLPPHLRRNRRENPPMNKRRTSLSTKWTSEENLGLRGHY
# [8] = molecular target: Mothers against decapentaplegic homolog 3 (Homo sapiens, UniProt P84022); assay: inhibitors of SMAD-driven TGF-beta signaling – dose response (AID 715); format: functional
# Chain of Mothers against decapentaplegic homolog 3 (P84022 whole entry): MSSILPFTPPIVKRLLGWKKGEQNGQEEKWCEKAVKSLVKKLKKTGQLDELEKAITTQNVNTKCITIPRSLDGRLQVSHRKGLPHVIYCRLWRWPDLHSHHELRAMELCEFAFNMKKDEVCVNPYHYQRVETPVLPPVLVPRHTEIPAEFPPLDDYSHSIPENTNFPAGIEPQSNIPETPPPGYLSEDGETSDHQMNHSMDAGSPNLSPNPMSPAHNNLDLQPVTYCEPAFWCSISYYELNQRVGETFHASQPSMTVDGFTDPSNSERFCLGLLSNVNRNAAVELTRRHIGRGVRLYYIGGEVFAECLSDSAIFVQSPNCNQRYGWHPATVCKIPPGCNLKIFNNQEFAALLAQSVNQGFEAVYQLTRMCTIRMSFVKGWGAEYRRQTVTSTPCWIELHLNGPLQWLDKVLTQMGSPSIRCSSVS
# [9] = Trypanosoma cruzi growth suppression in host cells – NIH3T3 host cells, beta-gal luminescence, confirmation (AID 2044); format: functional, cell-based;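 further: intracellular parasites grown in NIH/3T3 mouse fibroblasts as host cells; luminescent beta-galactosidase reporter signal from transgenic T. cruzi replicating inside host cells; inhibitors lower the luminescence signal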
# [10] = NIH3T3 cell viability loss – ATP luminescence, mouse fibroblasts, counter-screen, dose response (AID 2010); format: functional, cell-based;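 further: cells exposed to compound for about 90 hours before reading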
# [11] = molecular target: Mucolipin-3 (Homo sapiens, UniProt Q8TDD5); assay: Dose response cell-based high-throughput screening assay for agonists of the transient receptor potential channel ML3 (TRPML3). [Related pubchem assays: 1526, 1424, 1448 ]; format: functional
# Chain of Mucolipin-3 (Q8TDD5 whole entry): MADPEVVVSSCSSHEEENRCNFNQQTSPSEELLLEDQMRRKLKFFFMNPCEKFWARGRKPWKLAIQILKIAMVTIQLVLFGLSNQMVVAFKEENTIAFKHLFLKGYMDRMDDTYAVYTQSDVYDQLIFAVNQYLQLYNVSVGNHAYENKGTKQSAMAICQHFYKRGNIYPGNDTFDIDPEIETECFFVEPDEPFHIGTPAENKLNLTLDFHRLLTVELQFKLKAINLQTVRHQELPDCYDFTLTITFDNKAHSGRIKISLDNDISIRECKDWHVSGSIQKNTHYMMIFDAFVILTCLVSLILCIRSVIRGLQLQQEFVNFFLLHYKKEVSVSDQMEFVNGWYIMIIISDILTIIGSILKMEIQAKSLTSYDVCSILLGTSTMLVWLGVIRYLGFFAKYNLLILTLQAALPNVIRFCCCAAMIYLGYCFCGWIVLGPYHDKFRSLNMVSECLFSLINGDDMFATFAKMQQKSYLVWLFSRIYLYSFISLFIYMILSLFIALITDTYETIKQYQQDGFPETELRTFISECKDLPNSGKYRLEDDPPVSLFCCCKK
# [12] = molecular target: Ion channel NompC (Danio rerio, UniProt Q7T1G6); assay: Fluorescence counterscreen assay for TRPML3 agonists: dose response cell-based high-throughput screening assay to identify agonists of the transient receptor potential channel N1 (TRPN1). [Related pubchem assays: 1526, 1424, 1448 ]; format: functional
# [13] = molecular target: T4, Aminopeptidase N (Plasmodium falciparum FcB1/Columbia, UniProt O96935); assay: malaria alanyl aminopeptidase activity blockers – biochemical, fluorogenic H-Leu-NHMec substrate, 1536-well (AID 1445); parameters: species or system Plasmodium falciparum 3D7, 3D7
# T4 sequence (O96935 whole entry): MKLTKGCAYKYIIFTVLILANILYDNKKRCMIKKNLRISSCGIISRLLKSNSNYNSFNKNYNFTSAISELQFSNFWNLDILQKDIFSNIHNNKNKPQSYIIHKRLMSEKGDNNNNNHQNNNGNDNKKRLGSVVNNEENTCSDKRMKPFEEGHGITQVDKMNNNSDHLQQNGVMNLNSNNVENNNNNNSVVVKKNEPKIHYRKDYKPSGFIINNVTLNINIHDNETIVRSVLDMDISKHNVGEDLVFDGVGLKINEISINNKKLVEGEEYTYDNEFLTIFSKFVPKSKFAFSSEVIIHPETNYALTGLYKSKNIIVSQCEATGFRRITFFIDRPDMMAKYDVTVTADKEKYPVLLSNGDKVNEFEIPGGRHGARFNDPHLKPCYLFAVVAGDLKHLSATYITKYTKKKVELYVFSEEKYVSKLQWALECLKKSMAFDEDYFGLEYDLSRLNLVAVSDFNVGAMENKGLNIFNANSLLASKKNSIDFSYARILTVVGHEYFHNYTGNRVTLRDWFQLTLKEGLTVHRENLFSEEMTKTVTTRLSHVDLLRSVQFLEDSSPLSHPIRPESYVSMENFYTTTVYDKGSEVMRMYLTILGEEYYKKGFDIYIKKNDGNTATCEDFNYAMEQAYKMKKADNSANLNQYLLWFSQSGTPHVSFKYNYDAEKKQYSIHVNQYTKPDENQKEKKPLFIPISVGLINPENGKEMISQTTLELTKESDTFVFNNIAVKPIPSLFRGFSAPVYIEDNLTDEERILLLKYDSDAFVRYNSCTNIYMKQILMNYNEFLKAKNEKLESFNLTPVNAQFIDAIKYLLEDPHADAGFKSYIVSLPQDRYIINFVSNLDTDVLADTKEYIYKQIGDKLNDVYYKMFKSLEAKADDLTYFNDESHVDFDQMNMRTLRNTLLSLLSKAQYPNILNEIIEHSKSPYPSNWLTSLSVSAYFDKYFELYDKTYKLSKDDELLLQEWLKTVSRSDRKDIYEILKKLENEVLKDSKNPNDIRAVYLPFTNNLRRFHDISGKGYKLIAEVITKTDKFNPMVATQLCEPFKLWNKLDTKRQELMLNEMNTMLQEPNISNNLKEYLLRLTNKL
# [14] = CCR5-tropic HIV-1 fusion blockers – cell-based, CCR5-tropic Env, dose response (AID 2279); format: functional
# [15] = system: HeLa; assay: Cytotoxicity counterscreen assay for transcriptional activators of heat shock protein 70 (Hsp70). [Related pubchem assays: 1203, 1252 ]; format: functional; conditions: Homo sapiens;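 further: cells exposed to compound for 16 hours before readout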
# [16] = molecular target: T5, Rac GTPase-activating protein 1 (Homo sapiens, UniProt Q9H0H5); assay: blockers of MgcRacGAP-driven Rac1 GTP hydrolysis – biochemical, ADP Hunter fluorescence, primary and confirmatory, confirmation (AID 624330); format: functional
# T5 sequence (Q9H0H5 whole entry): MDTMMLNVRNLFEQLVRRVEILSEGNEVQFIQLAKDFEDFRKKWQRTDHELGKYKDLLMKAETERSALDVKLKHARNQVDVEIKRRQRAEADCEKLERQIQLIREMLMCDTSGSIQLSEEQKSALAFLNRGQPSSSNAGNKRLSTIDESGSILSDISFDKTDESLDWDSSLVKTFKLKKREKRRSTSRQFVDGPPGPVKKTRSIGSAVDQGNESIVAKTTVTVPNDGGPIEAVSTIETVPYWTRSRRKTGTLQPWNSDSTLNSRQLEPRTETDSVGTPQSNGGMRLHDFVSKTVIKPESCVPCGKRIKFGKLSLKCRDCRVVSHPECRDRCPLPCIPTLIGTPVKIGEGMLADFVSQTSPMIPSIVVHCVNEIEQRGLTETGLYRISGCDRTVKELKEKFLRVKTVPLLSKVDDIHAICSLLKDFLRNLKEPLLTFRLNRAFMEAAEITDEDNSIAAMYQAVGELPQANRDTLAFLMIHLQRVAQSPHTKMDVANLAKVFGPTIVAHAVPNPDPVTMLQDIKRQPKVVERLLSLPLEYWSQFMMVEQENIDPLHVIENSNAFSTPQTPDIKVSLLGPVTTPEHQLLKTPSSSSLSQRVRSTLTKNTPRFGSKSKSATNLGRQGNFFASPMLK
# [17] = system: Streptococcus sp. 'group A'; assay: Streptococcus pyogenes SK(-)GAS viability under kanamycin – luminescence, BacTiterGlo, confirmation, counter-screen for streptokinase expression inhibitor project, dose response (AID 1900); format: functional, organism-based
# [18] = molecular target: T6, Streptokinase A (Streptococcus pyogenes serotype M1, UniProt P10520); assay: viability-normalized secreted streptokinase activity reduction – plasminogen activation absorbance, OD405, dose response (AID 1914); format: functional, Streptococcus pyogenes M1 GAS;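 further: secreted streptokinase activity via plasminogen activation per viability signal from cell pellet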
# T6 sequence (P10520 whole entry): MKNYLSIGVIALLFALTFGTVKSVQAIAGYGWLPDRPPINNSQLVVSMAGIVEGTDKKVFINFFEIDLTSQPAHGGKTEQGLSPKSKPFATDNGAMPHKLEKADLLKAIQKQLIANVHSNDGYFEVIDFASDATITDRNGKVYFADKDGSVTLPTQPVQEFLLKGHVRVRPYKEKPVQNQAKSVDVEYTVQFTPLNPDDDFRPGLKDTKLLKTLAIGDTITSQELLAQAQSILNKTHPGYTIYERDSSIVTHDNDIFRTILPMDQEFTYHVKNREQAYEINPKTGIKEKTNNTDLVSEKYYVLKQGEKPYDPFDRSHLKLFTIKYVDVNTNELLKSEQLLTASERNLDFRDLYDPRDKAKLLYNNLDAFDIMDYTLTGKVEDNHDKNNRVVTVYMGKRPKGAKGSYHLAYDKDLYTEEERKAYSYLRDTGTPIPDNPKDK
# [19] = mitochondrial function rescue without frataxin homolog – Friedreich's ataxia, plus single-dose screen, dose response (AID 1465); format: functional;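 further: yeast depleted of Yfh1p frataxin homolog grown on glycerol needing respiration; WST-1 tetrazolium dye reduction as measure of cellular dehydrogenase metabolic activity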
# [20] = system: Streptococcus; assay: GAS UMAA2166 growth inhibition – luminescence, BacTiterGlo, counter-screen for streptokinase expression inhibitor project, dose response (AID 1915); format: functional, organism-based;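 further: potency for reduction of bacterial viability or growth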
# [21] = Luminescence Cell-Based Dose Retest to Confirm Inhibitors of Cancer Stem Cells. [Related pubchem assays (depositor defined):AID2717, AID2721]; format: functional; conditions: Homo sapiens
# [22] = molecular target: T7, Probable nicotinate-nucleotide adenylyltransferase (Staphylococcus aureus (strain N315), UniProt P65502); format: functional, Staphylococcus aureus subsp. aureus N315;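 on IC50 Mean: confirmatory dose-response retesting of NadD inhibitor hits first found in an ultra-high-throughput screen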
# T7 sequence (P65502 whole entry): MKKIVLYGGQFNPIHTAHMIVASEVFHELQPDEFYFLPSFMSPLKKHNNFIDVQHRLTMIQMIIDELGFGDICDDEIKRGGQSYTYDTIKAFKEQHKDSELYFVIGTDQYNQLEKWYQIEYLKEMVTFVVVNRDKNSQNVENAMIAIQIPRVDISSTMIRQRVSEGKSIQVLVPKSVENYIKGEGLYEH
# [23] = molecular target: T7, Probable nicotinate-nucleotide adenylyltransferase; format: functional, Staphylococcus aureus subsp. aureus N315; conditions: read-out: IC50_Mean
# 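Wherever AC50 is given: cells exposed to compound for roughly 70 hours or longer before luminescence read.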
smiles,measurement,setting,value
CCOC(=O)C1CCN(C(=O)CSc2ccccc2Cl)CC1,EC50,[1],> 79.4 µM (not active)
same,EC50,[2],> 79.4 µM (not active)
same,EC50,[3],> 79.4 µM (not active)
COc1ccc(N2CCN(C(=O)CCCn3c(=S)[nH]c4ccccc4c3=O)CC2)cc1,IC50,[4],> 50 µM (not active)
Cc1cc(C)c2c(O)nc(SCC(=O)c3ccc(C)c(C)c3)nc2n1,IC50,[5],27.6 µM (active)
CCCN1CCCc2cc(CN)ccc21,EC50,[6],18.5 µM (active)
same,EC50,[7],13 µM (active)
same,IC50,[8],24.6 µM (active)
same,EC50,[9],0.127 µM (active)
same,EC50,[10],> 30 µM (not active)
Cc1onc(-c2ccccc2Cl)c1C(=O)Nc1cccc(-c2nc3ncccn3c2C)c1,EC50,[11],> 29.9 µM (not active)
same,EC50,[12],> 29.9 µM (not active)
COc1cc(/C=C2\SC(=O)N(CC(=O)Nc3cccc(C)c3)C2=O)cc([N+](=O)[O-])c1O,IC50,[13],40.8 µM (active)
same,IC50,[14],> 50 µM (active)
COc1ccccc1C1Nc2cccc3cccc(c23)N1,CC50,[15],> 99 µM (not active)
same,IC50,[16],35.1 µM (active)
Oc1nc(NN=C(S)NCc2ccccc2)nc2c1C1(CCCCC1)Cc1ccccc1-2,EC50,[17],3.33 µM (active)
same,EC50,[18],4.58 µM (active)
same,EC50,[19],> 100 µM (active)
same,EC50,[20],6.03 µM (active)
same,AC50,[21],3 µM (active)
same,IC50,[22],11.8 µM (active)
same,IC50,[23],35.8 µM (active)
